Measured values from US8975399B2, “Benzenesulfon amide-compound treatment of a pathological condition linked to an excessive effect of TNF” (priority 2010, dated 2015).

Target: T1, human TNF-alpha (Homo sapiens, UniProt P01375)
T1 construct: purchased R & D Diagnostics
Assay: Apoptosis induced by human TNF-alpha on murine L929 cells (MTT survival)
Format: cell-based
Conditions: compound 10 μM, human TNF-alpha 0.150 ng/ml, 24 hours, % survival based on control cells without TNF
Experimental: The compounds are dissolved in DMSO to be used in vitro or in vivo by oral route, and in Cremophor® for their use in vivo by intraperitoneal route.
The cells were cultured in DMEM medium with 10% fcetal calf serum added. 4×10^4 cells in 100 μl of culture medium were exposed to human TNF-alpha (R & D Diagnostics) at 0.150 ng/ml for 24 hours in 96-well plates, and the tested compound was added at a final concentration of 100 μM or 10 μM. A solution of MTT dye was added (100 μl at 0.5 mg/ml) to each well over two hours in order to measure cell survival. The absorbance was measured at 570 nm using a BMG Fluostar microplate reader. The inhibitory activity of the products was expressed as a calculated % survival based on the control cells without the addition of TNF.

T1 sequence (P01375 77-233 limits assumed): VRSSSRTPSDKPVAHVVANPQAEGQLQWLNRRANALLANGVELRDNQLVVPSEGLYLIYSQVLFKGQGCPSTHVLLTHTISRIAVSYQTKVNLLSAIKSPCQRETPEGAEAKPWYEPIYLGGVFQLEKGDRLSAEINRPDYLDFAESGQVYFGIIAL

Compound	% Inhibition 10 μM [%]
3-(4-fluorophenyl)-4-oxo-4H-chromen-7-ylN-[(4-methylphenyl)sulphonyl]-beta-alaninate [Compound 24]	50.26
CCOc1ccc(S(=O)(=O)Nc2cc3c(C(C)=O)c(C)oc3c3ccccc23)cc1 [16 (1), N-(3-acetyl-2-methylnaphthho[1,2-b]furan-5-yl)-4-ethoxybenzene sulphonamide]	80.40
COc1ccc(S(=O)(=O)N(CC(=O)N2CCN(c3ccccc3OC)CC2)Cc2ccccc2)cc1C [32 (3), N-benzyl-4-methoxy-N-{2-[4-(2-methoxyphenyl)-1-piperazinyl]-2-oxoethyl}-3-methylbenzenesulphonamide]	69.73
COc1ccccc1N1CCN(C(=O)CN(Cc2ccccc2)S(=O)(=O)c2ccc(Cl)cc2)CC1 [66 (14), N-benzyl-4-chloro-N-{2-[4-(2-methoxyphenyl)-1-piperazinyl]-2-oxoethyl}benzenesulphonamide]	67.4
COc1ccccc1N1CCN(C(=O)CN(Cc2ccccc2)S(=O)(=O)c2ccc(Br)cc2)CC1 [67 (15), N-benzyl-4-bromo-N-{2-[4-(2-methoxyphenyl)-1-piperazinyl]-2-oxoethyl}benzenesulphonamide]	61.8
Cc1ccc(S(=O)(=O)N(CC(=O)N2CCN(Cc3ccccc3)CC2)c2ccc(C)c(C)c2)cc1 [72 (21), N-[2-(4-benzyl-1-piperazinyl)-2-oxoethyl]-N-(3,4-dimethylphenyl)-4-methylbenzenesulphonamide]	53.4
Cc1c(Cl)cccc1N(CC(=O)N1CCN(Cc2ccccc2)CC1)S(=O)(=O)c1ccccc1 [73 (23), N-[2-(4-benzyl-1-piperazinyl)-2-oxoethyl]-N-(3-chloro-2-methylphenyl)benzenesulphonamide]	44.8
COc1ccc(S(=O)(=O)Nc2cc3c(C(C)=O)c(C)oc3cc2C)cc1 [Compound 1, N-(3-acetyl-2,6-dimethyl-1-benzofuran-5-yl)-4-methoxybenzene sulphonamide]	71.15
COC(=O)c1c(C)oc2ccc(NS(=O)(=O)c3ccc(OC)cc3)cc12 [Compound 2, methyl 5-{[(4-methoxyphenyl)sulphonyl]amino}-2-methyl-1-benzofuran-3-carboxylate]	57.51
COC(=O)c1c(C)oc2ccc(NS(=O)(=O)c3ccc(C)cc3)cc12 [Compound 3, methyl 2-methyl-5-{[(4-methylphenyl)sulphonyl]amino}-1-benzofuran-3-carboxylate]	48.09
Cc1ccc(-c2nnc(NCc3ccccc3)c3ccccc23)cc1S(=O)(=O)NCC1CCCO1 (stereo not shown) [Compound 23, 5-[4-(benzylamino)-1-phthalazinyl]-2-methyl-N-(tetrahydro-2-furanylmethyl)benzenesulphonamide]	44.74
COc1ccc(NC(=O)CN(Cc2cccc(Cl)c2)S(=O)(=O)c2ccc(C)cc2)c(OC)c1 [Compound 33, N˜2˜-(3-chlorobenzyl)-N˜1˜-(2,4-dimethoxyphenyl)-N˜2˜-[(4-methylphenyl)sulphonyl]glycinamide]	52.4
COc1ccc(OC)c(N(CC(=O)Nc2cccc(C(C)=O)c2)S(=O)(=O)c2ccc(C)cc2)c1 [Compound 34, N˜1˜-(3-acetylphenyl)-N-˜2˜-(2,5-dimethoxyphenyl)-N˜2˜-[(4-methylphenyl)sulphonyl]glycinamide]	42.26
COc1ccccc1N1CCN(C(=O)CN(Cc2ccc(F)cc2)S(=O)(=O)c2ccc(Cl)cc2)CC1 [Compound 71, 4-chloro-N-(4-fluorobenzyl)-N-{2-[4-(2-methoxyphenyl)-1-piperazinyl]-2-oxoethyl}benzenesulphonamide]	53.6
CC1CCN(C(=O)CN(Cc2ccc(Cl)c(Cl)c2)S(=O)(=O)c2ccc(Cl)cc2)CC1 [Compound 74, 4-chloro-N-(3,4-dichlorobenzyl)-N-[2-(4-methyl-1-piperidinyl)-2-oxoethyl]benzenesulphonamide]	45.6
COc1ccccc1N1CCN(C(=O)CN(Cc2ccccc2)S(=O)(=O)c2ccc(F)cc2)CC1 [Compound 75, N-benzyl-4-fluoro-N-{2-[4-(2-methoxyphenyl)-1-piperazinyl]-2-oxoethyl}benzenesulphonamide]	44.7

Compound	% Inhibition 10 μM [%]
Cc1ccc(S(=O)(=O)N(CC(=O)N2CCN(Cc3ccccc3)CC2)c2cc(C)cc(C)c2)cc1 [Compound 76, N-[2-(4-benzyl-1-piperazinyl)-2-oxoethyl]-N-(3,5-dimethylphenyl)-4-methylbenzenesulphonamide]	35.5
COc1ccc(S(=O)(=O)N(CC(=O)N2CCN(c3ccccc3F)CC2)Cc2ccccc2)cc1 [Compound 77, N-benzyl-N-{2-[4-(2-fluorophenyl)-1-piperazinyl]-2-oxoethyl}-4-methoxybenzenesulphonamide]	32.8
COc1ccc(S(=O)(=O)N(CC(=O)N2CCc3ccccc3C2)c2cc(C)cc(C)c2)cc1OC [Compound 78, N-[2-(3,4-dihydro-2(1H)-isoquinolinyl)-2-oxoethyl]-N-(3,5-dimethylphenyl)-3,4-d imethoxybenzenesulphonamide]	38.4
COc1ccc(S(=O)(=O)N(CC(=O)N2CCN(c3ccccc3)CC2)c2ccc(C)cc2)cc1OC [Compound 79, 3,4-dimethoxy-N-(4-methylphenyl)-N-[2-oxo-2-(4-phenyl-1-piperazinyl)ethyl]benzenesulphonamide]	36.8
Cc1ccc(CN(CC(=O)N2CCN(c3ccc(F)cc3)CC2)S(=O)(=O)c2ccccc2)cc1 [Compound 80, N-{2-[4-(4-fluorophenyl)-1-piperazinyl]-2-oxoethyl}-N-(4-methylbenzyl)benzenesulphonamide]	34.3
Cc1ccc(S(=O)(=O)N(CC(=O)N2CCC(Cc3ccccc3)CC2)c2ccc(F)cc2)cc1 [Compound 81, N-[2-(4-benzyl-1-piperidinyl)-2-oxoethyl]-N-(4-fluorophenyl)-4-methylbenzenesulphonamide]	34.8
Cc1ccc(S(=O)(=O)N(CC(=O)N2CCN(Cc3ccccc3)CC2)c2ccccc2C)cc1 [Compound 82, N-[2-(4-benzyl-1-piperazinyl)-2-oxoethyl]-4-methyl-N-(2-methylphenyl)benzenesulphonamide]	34.6
COc1ccc(S(=O)(=O)N(CC(=O)N2CCN(c3ccc(F)cc3)CC2)Cc2ccccc2)cc1OC [Compound 84, N-benzyl-N-{2-[4-(4-fluorophenyl)-1-piperazinyl]-2-oxoethyl}-3,4-dimethoxybenzenesulphonamide]	33.6
N-(1,2-dihydro-5-acenaphthhylenyl)-2.4,6-trimethylbenzenesulphonamide [Compound 26]	43.84
N-(1′,2-dihydroxy-1.2′-binaphthhalen-4′-yl)-4-methoxybenzene-sulphonamide [Compound 21]	53.45
N-[2-(4-benzyl-1-piperazinyl)-2-oxoethyl]-N-(3-chlorophenyl)-4-methyl benzenesulphonamide [65 (13)]	61.4
N-[2-(4-benzyl-1-piperazinyl)-2-oxoethyl]-N-(4-chlorophenyl)-4-methyl benzenesulphonamide [68 (16)]	56.2
N-benzyl-4-methyl-N-[2-oxo-2-(4-phenyl-1-piperazinyl)pethyl]benzenesulphonamide [69 (18)]	61.3
N-{2-[4-(2-fluorophenyl)-1-piperazinyl]-2-oxoethyl}-N-(4-methylbenzyl) benzenesulphonamide [70 (19)]	54.0
N-{2-[4-(diphenylmethyl)-1-piperazinyl]-2-oxoethyl}-N,4-dimethyl benzenesulphonamide [Compound 85]	32.1
